The values that follow come from patent US8754226B2, “Piperidinyl-substituted lactams as GPR119 modulators” (Array BioPharma Inc., priority 2010, dated 2014).

The test concerns modified version of the GPR119 receptor (94% identity to human receptor). The test can be described thus: cAMP production assay (LANCE cAMP kit, TR-FRET) in HEK-293 cells. The class given is cell-based. Particulars: for cAMP production in HEK-293 cells: HEK-293 cells stably expressing modified GPR119, test compounds 0.2 nM to 10 μM, one-hour incubation at ambient temperature; for Fold over baseline: increase in cAMP relative to basal levels, agonist activity if 1.5-fold or greater. The method, boiled down:
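Doxycycline-induced (1 μg/mL, overnight) HEK-293 cells expressing modified GPR119 were thawed, 2000 cells/well, and exposed to compounds (0.2 nM-10 μM final, 0.5% DMSO) for 1 h at ambient temperature in HBSS/HEPES/BSA. cAMP was measured by LANCE TR-FRET against a standard curve. Agonism was defined as ≥1.5-fold over basal.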

For `O=C1[C@@H](Nc2ccc(S(=O)(=O)C3CC3)nc2)CCN1C1CCN(c2cnc(Cl)cn2)CC1` [Example 124, (S)-1-(1-(5-chloropyrazin-2-yl)piperidin-4-yl)-3-(6-(cyclopropylsulfonyl)pyri-din-3-ylamino)pyrrolidin-2-one], the “cAMP production in HEK-293 cells” value is 14.1 nmol and the Fold over baseline is 3.6.

As for `CS(=O)(=O)c1cc(F)c(N[C@H]2CCCN(C3CCN(c4cnc(Cl)cn4)CC3)C2=O)cc1F` [Example 57, (S)-1′-(5-chloropyrazin-2-yl)-3-(2,5-difluoro-4-(methylsulfonyl)phenylamino)-[1,4′-bipiperidin]-2-one], the “cAMP production in HEK-293 cells” value was determined as 22.8 nmol and the Fold over baseline turned out to be 3.3.

On to `CS(=O)(=O)c1cc(F)c(N[C@H]2CCN(C3CCN(c4cnc(Br)cn4)CC3)C2=O)cc1F` [Example 15, (S)-1-(1-(5-bromopyrazin-2-yl)piperidin-4-yl)-3-(2,5-difluoro-4-(methylsulfonyl)phenylamino)pyrrolidin-2-one], for which the “cAMP production in HEK-293 cells” value worked out at 24.2 nmol and the Fold over baseline was 4.2.

With `CCc1cnc(N2CCC(N3CC[C@H](Nc4ccc(S(C)(=O)=O)cc4F)C3=O)CC2)cn1` [Example 89, (S)-1-(1-(5-ethylpyrazin-2-yl)piperidin-4-yl)-3-(2-fluoro-4-(methylsulfonyl)phenyl-amino)pyrrolidin-2-one trifluoroactetate], the “cAMP production in HEK-293 cells” value came to 23.1 nmol and the Fold over baseline came to 4.8.

For the compound `CCS(=O)(=O)c1ccc(N[C@H]2CCN(C3CCN(c4cnc(Cl)cn4)CC3)C2=O)c(F)c1` [Example 17, (S)-1-(1-(5-chloropyrazin-2-yl)piperidin-4-yl)-3-(4-(ethylsulfonyl)-2-fluorophenylamino)pyrrolidin-2-one], the “cAMP production in HEK-293 cells” value was 107.3 nmol and the Fold over baseline is listed as 5.3.

Turning to `CS(=O)(=O)c1cc(F)c(N[C@H]2CCCCN(C3CCN(c4cncc(Cl)n4)CC3)C2=O)cc1F.Cl` [Example 84, (S)-1-(1-(6-chloropyrazin-2-yl)piperidin-4-yl)-3-(2,5-difluoro-4-(methylsulfonyl)phenylamino)azepan-2-one hydrochloride], the “cAMP production in HEK-293 cells” value stood at 6.3 nmol and the Fold over baseline was determined as 1.8.

For `Cc1cc(N[C@H]2CCN(C3CCN(c4cnc(Cl)cn4)CC3)C2=O)c(F)cc1S(C)(=O)=O` [Example 1, (S)-1-(1-(5-chloropyrazin-2-yl)piperidin-4-yl)-3-(2-fluoro-5-methyl-4-(methylsulfonyl)phenylamino)pyrrolidin-2-one], the “cAMP production in HEK-293 cells” value came out at 23.5 nmol and the Fold over baseline is 3.9.

With `CS(=O)(=O)c1ccc(N[C@H]2CCCN(C3CCN(c4cnc(Cl)cn4)CC3)C2=O)c(F)c1` [Example 44, (S)-1′-(5-chloropyrazin-2-yl)-3-(2-fluoro-4-(methylsulfonyl)phenylamino)-[1,4′-bipiperidin]-2-one], the “cAMP production in HEK-293 cells” value worked out at 20.4 nmol and the Fold over baseline is on record as 4.1.

For `Cn1nccc1-c1cnc(N2CCC(N3CC[C@H](Nc4ccc(S(C)(=O)=O)cc4F)C3=O)CC2)nc1` [Example 32, (S)-3-(2-fluoro-4-(methylsulfonyl)phenylamino)-1-(1-(5-(1-methyl-1H-pyrazol-5-yl)pyrimidin-2-yl)piperidin-4-yl)pyrrolidin-2-one], the “cAMP production in HEK-293 cells” value stood at 10.9 nmol and the Fold over baseline is reported as 2.4.

Take `CS(=O)(=O)c1ccc(N[C@@H]2CCN(C3CCN(c4cnc(Cl)cn4)CC3)C2=O)c(F)c1` [Example 118, (R)-1-(1-(5-chloropyrazin-2-yl)piperidin-4-yl)-3-(2-fluoro-4-(methylsulfonyl)phenyl-amino)pyrrolidin-2-one]: the “cAMP production in HEK-293 cells” value was found to be 40.6 nmol and the Fold over baseline is 3.4.

With `CCc1cnc(N2CCC(N3CCC[C@H](N(C)c4cc(F)c(S(C)(=O)=O)cc4F)C3=O)CC2)nc1` [Example 78, (S)-3-((2,5-difluoro-4-(methylsulfonyl)phenyl)(methyl)amino)-1′-(5-ethylpyrimidin-2-yl)-[1,4′-bipiperidin]-2-one], the “cAMP production in HEK-293 cells” value came to 13.6 nmol and the Fold over baseline is listed as 3.4.

Consider `CCS(=O)(=O)c1ccc(N[C@H]2CCN(C3CCN(c4ncc(Cl)cc4C#N)CC3)C2=O)cn1` [Example 129, (S)-5-chloro-2-(4-(3-(6-(ethylsulfonyl)pyridin-3-ylamino)-2-oxopyrrolidin-1-yl)piperidin-1-yl)nicotinonitrile], for which the “cAMP production in HEK-293 cells” value amounted to 28.4 nmol and the Fold over baseline is listed as 2.1.

With `CS(=O)(=O)c1ccc(N[C@H]2CCN(C3CCN(c4ncc(CO)cc4Cl)CC3)C2=O)c(F)c1` [Example 156, (S)-1-(1-(3-chloro-5-(hydroxymethyl)pyridin-2-yl)piperidin-4-yl)-3-(2-fluoro-4-(methylsulfonyl)phenylamino)pyrrolidin-2-one], the “cAMP production in HEK-293 cells” value is 17.3 nmol and the Fold over baseline is 2.3.

`CS(=O)(=O)c1ccc(O[C@H]2CCN(C3CCN(c4cnc(Cl)cn4)CC3)C2=O)c(F)c1` [Example 91, (S)-1-(1-(5-chloropyrazin-2-yl)piperidin-4-yl)-3-(2-fluoro-4-(methylsulfonyl)phenoxy)pyrrolidin-2-one]: the “cAMP production in HEK-293 cells” value stood at 38.0 nmol and the Fold over baseline came to 3.9.

Consider `CS(=O)(=O)c1ccc(N[C@H]2CCCN(C3CCN(c4ncc(C(F)(F)F)cc4Cl)CC3)C2=O)c(F)c1` [Example 145, (S)-1′-(3-chloro-5-(trifluoromethyl)pyridin-2-yl)-3-(2-fluoro-4-(methylsulfonyl)phenyl-amino)-1,4′-bipiperidin-2-one], for which the “cAMP production in HEK-293 cells” value is 28.3 nmol and the Fold over baseline is listed as 2.1.

For the compound `CCc1cnc(N2CCC(N3CC[C@H](Oc4cc(C)c(C#N)cc4F)C3=O)CC2)nc1` [Example 98, (S)-4-(1-(1-(5-ethylpyrimidin-2-yl)piperidin-4-yl)-2-oxopyrrolidin-3-yloxy)-5-fluoro-2-methylbenzonitrile], the “cAMP production in HEK-293 cells” value was 31.2 nmol and the Fold over baseline is reported as 3.5.

For the compound `CCc1cnc(N2CCC(N3CC[C@H](Nc4cc(C)c(S(C)(=O)=O)cc4F)C3=O)CC2)cn1` [Example 2, (S)-1-(1-(5-ethylpyrazin-2-yl)piperidin-4-yl)-3-(2-fluoro-5-methyl-4-(methylsulfonyl)phenylamino)pyrrolidin-2-one], the “cAMP production in HEK-293 cells” value was found to be 27.9 nmol and the Fold over baseline turned out to be 4.8.

In the case of `CS(=O)(=O)c1cc(F)c(N[C@H]2CCCN(C3CCN(c4ncc(C#N)cn4)CC3)C2=O)cc1F` [Example 51, (S)-2-(3-(2,5-difluoro-4-(methylsulfonyl)phenylamino)-2-oxo-[1,4′-bipiperidin]-1′-yl)pyrimidine-5-carbonitrile], the “cAMP production in HEK-293 cells” value is 8.8 nmol and the Fold over baseline is listed as 2.7.

With `CC(C)c1cnc(N2CCC(N3CCC(Oc4cc(F)c(S(C)(=O)=O)cc4F)C3=O)CC2)nc1` (centres unmarked) [Example 86, 3-(2,5-difluoro-4-(methylsulfonyl)phenoxy)-1-(1-(5-isopropylpyrimidin-2-yl)piperidin-4-yl)pyrrolidin-2-one], the “cAMP production in HEK-293 cells” value amounted to 5.9 nmol and the Fold over baseline is listed as 1.9.

For `CCc1cnc(N2CCC(N3CCC[C@H](Nc4cc(F)c(S(C)(=O)=O)cc4F)C3=O)CC2)nc1` [Example 45, (S)-3-(2,5-difluoro-4-(methylsulfonyl)phenylamino)-1′-(5-ethylpyrimidin-2-yl)-[1,4′-bipiperidin]-2-one], the “cAMP production in HEK-293 cells” value is 13.3 nmol and the Fold over baseline was determined as 2.3.

For the compound `CS(=O)(=O)c1cc(F)c(O[C@H]2CCN(C3CCN(c4ncc(-c5ncccn5)cn4)CC3)C2=O)cc1F` [Example 95, (S)-1-(1-(2,5′-bipyrimidin-2′-yl)piperidin-4-yl)-3-(2,5-difluoro-4-(methylsulfonyl)phenoxy)pyrrolidin-2-one], the “cAMP production in HEK-293 cells” value turned out to be 9.0 nmol and the Fold over baseline turned out to be 2.3.

Take `Cc1nnc(-c2ccc(O[C@H]3CCN(C4CCN(c5cnc(Cl)cn5)CC4)C3=O)c(F)c2)o1` [Example 71, (S)-1-(1-(5-chloropyrazin-2-yl)piperidin-4-yl)-3-(2-fluoro-4-(5-methyl-1,3,4-oxadiazol-2-yl)phenoxy)pyrrolidin-2-one]: the “cAMP production in HEK-293 cells” value is 17.6 nmol and the Fold over baseline turned out to be 5.6.

With `CS(=O)(=O)c1ccc(N[C@H]2CCN(C3CCN(c4ncc(Cl)nc4Cl)CC3)C2=O)cn1` [Example 161, (S)-1-(1-(3,5-dichloropyrazin-2-yl)piperidin-4-yl)-3-(6-(methylsulfonyl)pyridin-3-ylamino)pyrrolidin-2-one], the “cAMP production in HEK-293 cells” value came to 13.8 nmol and the Fold over baseline is 3.6.

Turning to `CS(=O)(=O)c1cc(F)c(N[C@H]2CCN(C3CCN(c4cnc(C#N)cn4)CC3)C2=O)cc1F` [Example 16, (S)-5-(4-(3-(2,5-difluoro-4-(methylsulfonyl)phenylamino)-2-oxopyrrolidin-1-yl)piperidin-1-yl)pyrazine-2-carbonitrile], the “cAMP production in HEK-293 cells” value was 21.4 nmol and the Fold over baseline stood at 4.0.

In the case of `CS(=O)(=O)c1ccc(N[C@H]2CCN(C3CCN(c4cnc(C(F)(F)F)cn4)CC3)C2=O)c(F)c1` [Example 13, (S)-3-(2-fluoro-4-(methylsulfonyl)phenylamino)-1-(1-(5-(trifluoromethyl)pyrazin-2-yl)piperidin-4-yl)pyrrolidin-2-one], the “cAMP production in HEK-293 cells” value worked out at 24.8 nmol and the Fold over baseline is recorded as 4.4.
